Experimental data from patent publication US8916183B2, “Pesticidal compositions and processes related thereto” (priority 2012, dated 2014).

Key:
Format in all cases: in vivo
[1] = system: Beet Armyworm (BAW) (Spodoptera exigua); assay: Bioassay on beet armyworm (BAW), 128-well diet tray assay; conditions: Spodoptera exigua; beet armyworm, 50 μg/cm^2; read-out: % Mortality BAW 50 μg/cm^2
[2] = system: Corn Earworm (CEW) (Helicoverpa zea); assay: Bioassay on corn earworm (CEW), 128-well diet tray assay; conditions: Helicoverpa zea; corn earworm, 50 μg/cm^2; read-out: % Mortality CEW 50 μg/cm^2
How it was run: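 Activity was scored as percent larval mortality per well, averaged across eight wells and reported on a rating scale. Diet trays (128-well) were kept at 25° C with 14:10 light-dark for five to seven days.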

[3] = system: Green Peach Aphid (GPA) (Myzus persicae); assay: Bioassay on green peach aphid (GPA), foliar spray on cabbage seedlings; conditions: green peach aphid, 200 ppm, read-out: % Mortality GPA 200 ppm
Procedure: Certain molecules disclosed in this document were tested against GPA using procedures described in the following example. In the reporting of the results, the “GPA Rating Table” was used (See Table Section).
Cabbage seedlings grown in 3-inch pots, with 2-3 small (3-5 cm) true leaves, were used as test substrate. The seedlings were infested with 20-50 GPA (wingless adult and nymph stages) one day prior to chemical application. Four pots with individual seedlings were used for each treatment. Test compounds (2 mg) were dissolved in 2 mL of acetone/methanol (1:1) solvent, forming stock solutions of 1000 ppm test compound. […] A hand-held aspirator-type sprayer was used for spraying a solution to both sides of […] leaves until runoff. Reference plants (solvent check) were sprayed with the diluent only containing 20% by volume of acetone/methanol (1:1) solvent. Treated plants were held in a holding room for three days at approximately 25° C. and ambient relative humidity (RH) prior to grading. Evaluation was conducted by counting the number of live aphids per plant under a microscope. […] Corrected % Control=100*(X−Y)/X • where • X=No. of live aphids on solvent check plants and • Y=No. of live aphids on treated plants
The results are indicated in the table entitled “Table 5: Biological Results” (See Table Section).

Row | SMILES | mortality at 50 µg/cm2 [1] [%] | mortality at 50 µg/cm2 [2] [%] | mortality at 200 ppm [3] [%]
1 | CC1CS/C(=N\N=C\c2ccc(-c3ncn(-c4ccc(OC(F)(F)F)cc4)n3)cc2)N1c1c(Cl)cccc1Cl (stereo not drawn) [Compound 157C] | 50 to 100 | 50 to 100 | 0 to 80
2 | COc1ccc(C(C)/N=C(/N/N=C/c2ccc(-c3ncn(-c4ccc(OC(F)(F)F)cc4)n3)cc2)SCC(=O)O)cc1 (stereo not drawn) [Compound 52C] | 0 to 50 | 0 | 0 to 80
3 | CCc1ccccc1N1/C(=N/N=C/c2ccc(-c3ncn(-c4ccc(OC(F)(F)F)cc4)n3)cc2)SCC1(C)O (stereo not drawn) [Compound 254C] | 50 to 100 | 50 to 100 | 0 to 80
4 | COc1cc(C)c(/N=C(/N/N=C/c2ccc(-c3ncn(-c4ccc(OC(F)(F)F)cc4)n3)cc2)SCOC(=O)C2CCCC2)c(C)c1 [Compound 43C] | 50 to 100 | 50 to 100 | 0 to 80
5 | COCCOC(C)C(=O)OCS/C(=N\c1c(C)cc(OC)cc1C)N/N=C/c1ccc(-c2ncn(-c3ccc(OC(F)(F)F)cc3)n2)cc1 (stereo not drawn) [Compound 42C] | 50 to 100 | 50 to 100 | 0
6 | COc1ccc(C(C)/N=C(/N/N=C/c2ccc(-c3ncn(-c4ccc(OC(F)(F)F)cc4)n3)cc2)SCC(=O)O)cc1F (stereo not drawn) [Compound 53C] | 0 to 50 | 0 | 0 to 80
7 | CC(=O)OCS/C(=N\c1c(C)cccc1C)N/N=C/c1ccc(-c2ncn(-c3ccc(OC(F)(F)F)cc3)n2)cc1 [Compound 31C] | 50 to 100 | 50 to 100 | 0 to 80
8 | CC1S/C(=N\N=C\c2ccc(-c3ncn(-c4ccc(OC(F)(F)F)cc4)n3)cc2)N(c2ccccc2C(C)C)C1=O (stereo not drawn) [Compound 88C] | 50 to 100 | 50 to 100 | 0 to 80
9 | Cc1cccc(C)c1/N=C1\SCC(=O)N1/N=C/c1ccc(-c2ncn(-c3ccc(OC(F)(F)F)cc3)n2)cc1 [Compound 81C] | 50 to 100 | 50 to 100 | 0
10 | CCc1ccccc1N1C(=O)CS/C1=N\N=C\c1ccc(-c2ncn(-c3ccc(OC(F)(F)F)cc3)n2)cc1 [Compound 94C] | 50 to 100 | 50 to 100 | 0
11 | CC(C)c1cccc(F)c1N1/C(=N/N=C/c2ccc(-c3ncn(-c4ccc(OC(F)(F)F)cc4)n3)cc2)SCC1(C)O (stereo not drawn) [Compound 250C] | 50 to 100 | 50 to 100 | 0 to 80
12 | CCN(CC)c1ccc(-c2cs/c(=N\N=Cc3ccc(-c4ncn(-c5ccc(OC(F)(F)F)cc5)n4)cc3)n2-c2c(C)cccc2C)cc1 [Compound 74C] | 50 to 100 | 50 to 100 | 0
13 | CCOc1ccccc1N1CCS/C1=N\N=C\c1ccc(-c2ncn(-c3ccc(OC(F)(F)F)cc3)n2)cc1 [Compound 146C] | 50 to 100 | 50 to 100 | 0 to 80
14 | COc1cc(C)c(/N=C(/N/N=C/c2ccc(-c3ncn(-c4ccc(OC(F)(F)F)cc4)n3)cc2)SCC(=O)NCCCNC(=O)OC(C)(C)C)c(C)c1 [Compound 60C] | 50 to 100 | 50 to 100 | 0
15 | Cc1cccc(C)c1/N=C(/N/N=C/c1ccc(-c2ncn(-c3ccc(OC(F)(F)F)cc3)n2)cc1)SCC(=O)NCC(C)C [Compound 55C] | 50 to 100 | 50 to 100 | 0
16 | CC(C)c1ccccc1N1CCCCS/C1=N\N=C\c1ccc(-c2ncn(-c3ccc(OC(F)(F)F)cc3)n2)cc1 [Compound 212C] | 50 to 100 | 50 to 100 | 0

Row | SMILES | mortality at 50 µg/cm2 [1] [%] | mortality at 50 µg/cm2 [2] [%] | mortality at 200 ppm [3] [%]
17 | FC(F)(F)Oc1ccc(-n2cnc(-c3ccc(/C=N/N=C4\SCCCN4c4c(Cl)cccc4C(F)(F)F)cc3)n2)cc1 [Compound 190C] | 50 to 100 | 50 to 100 | 0 to 80
18 | Cc1cccc(C)c1N1CCS/C1=N\N=C\c1ccc(-c2ncn(-c3ccc(OC(F)(F)F)cc3)n2)cc1 [Compound 142C] | 50 to 100 | 50 to 100 | 0
19 | CCC(C)c1ccccc1N1C(=O)CS/C1=N\N=C\c1ccc(-c2ncn(-c3ccc(OC(F)(F)F)cc3)n2)cc1 (stereo not drawn) [Compound 108C] | 50 to 100 | 50 to 100 | 0
20 | Cc1cccc(C)c1/N=C(/N/N=C/c1ccc(-c2ncn(-c3ccc(OC(F)(F)F)cc3)n2)cc1)SCC(=O)NCCCN [Compound 66C] | 50 to 100 | 50 to 100 | 0 to 80
21 | CC(C)Cc1ccccc1N1C(=O)CS/C1=N\N=C\c1ccc(-c2ncn(-c3ccc(OC(F)(F)F)cc3)n2)cc1 [Compound 119C] | 50 to 100 | 50 to 100 | 0
22 | COc1cc(C)c(/N=C(/N/N=C/c2ccc(-c3ncn(-c4ccc(OC(F)(F)C(F)(F)F)cc4)n3)cc2)SCC(=O)O)c(C)c1 [Compound 51C] | 50 to 100 | 50 to 100 | 0
23 | COc1cc(C)c(/N=C(/N/N=C/c2ccc(-c3ncn(-c4ccc(OC(F)(F)F)cc4)n3)cc2)SCOC(=O)C(C)(C)C)c(C)c1 [Compound 40C] | 50 to 100 | 50 to 100 | 0 to 80
24 | COc1ccc(N2CCCS/C2=N\N=C\c2ccc(-c3ncn(-c4ccc(OC(F)(F)F)cc4)n3)cc2)c(C)c1 [Compound 192C] | 50 to 100 | 50 to 100 | 0 to 80
25 | Cc1cccc(C)c1/N=C(/N/N=C/c1ccc(-c2ncn(-c3ccc(OC(F)(F)F)cc3)n2)cc1)SCC(=O)N1CCNCC1 [Compound 67C] | 50 to 100 | 50 to 100 | 0
26 | Cc1cc(Br)cc(C)c1N1CCCS/C1=N\N=C\c1ccc(-c2ncn(-c3ccc(OC(F)(F)F)cc3)n2)cc1 [Compound 203C] | 50 to 100 | 50 to 100 | 0 to 80
27 | CC(C)c1ccccc1N1/C(=N/N=C/c2ccc(-c3ncn(-c4ccc(OC(F)(F)F)cc4)n3)cc2)SCC1(C)O (stereo not drawn) [Compound 242C] | 50 to 100 | 50 to 100 | 0 to 80
28 | COCCOC(C)C(=O)OCS/C(=N\c1c(C)cccc1C)N/N=C/c1ccc(-c2ncn(-c3ccc(OC(F)(F)F)cc3)n2)cc1 (stereo not drawn) [Compound 41C] | 50 to 100 | 50 to 100 | 0
29 | COc1cc(Cl)c(/N=C(/N/N=C/c2ccc(-c3ncn(-c4ccc(OC(F)(F)F)cc4)n3)cc2)SCOC(=O)OC(C)C)c(Cl)c1 [Compound 33C] | 50 to 100 | 50 to 100 | 0 to 80
30 | CC(C)=Cc1ccccc1N1CCS/C1=N\N=C\c1ccc(-c2ncn(-c3ccc(OC(F)(F)F)cc3)n2)cc1 [Compound 151C] | 50 to 100 | 50 to 100 | 0 to 80
31 | Cc1ccccc1N1CCS/C1=N\N=C\c1ccc(-c2ncn(-c3ccc(OC(F)(F)F)cc3)n2)cc1 [Compound 141C] | 50 to 100 | 50 to 100 | 0
